Source: patent publication US20140309295A1, “ANTIEPILEPTIC, HYPOCHOLESTEROLEMIC AND NEUROPROTECTIVE COMPOUND” (NEURON BIOPHARMA, S.A., priority 2009, published 2014)

Key:
[1] = system: human neuroblastoma SK-N-MC cells; assay: Protection against neuronal death induced by oxidative stress (xanthine/xanthine oxidase), WST-1; assay type: cell-based
Protocol: (§1) The assay was performed on human neuroblastoma SK-N-MC cells in culture from the American Type Culture Collection (ATCC), in all cases strict rules of sterility were followed and the manipulation was performed in class II biological safety cabinets following European standard EN 12469. The cells were maintained in the following culture medium: Minimum Essential Medium Eagle (MEM) supplemented with 1 mM sodium pyruvate, 2 mM L-glutamine, 0.1 mM non-essential amino acids, 0.05 mg/ml gentamicin and 10% fetal bovine serum.
The inhibition caused by compound NST0037 of cell death caused by treatment with xanthine/xanthine oxidase which generates oxidative damage (causes free radicals such as hydrogen peroxide, superoxide anion, hydroxyl radical), which triggers cell death, was analyzed. These cells, not exceeding 15 passages, were seeded on 96-well plates treated for adherent cells with a cell concentration of 5×10^4 cells/well; 3 wells of the plate were seeded for each condition of the assay.
After 24 hours of cell incubation at 37° C. and 5% CO2, the cell treatments were performed with 100 μl of total volume for the following conditions: • Control: culture medium (medium) • Xanthine/xanthine oxidase (XXO): medium plus 10 μM xanthine/60 mU/mL xanthine oxidase, causing the death of 50% of the cells. • XXO plus NST0037: medium plus XXO (10 μM/60 mU/mL) plus NST0037 at 1, 4, 10, 20, 40 or 100 μM.
The cells were incubated (at 37° C. and 5% CO2) with these treatments for 22 hours, after which time the WST-1 reagent (Roche) was added. The Test WST-1 is based on the measurement of metabolic activity. Cell damage causes the loss of the ability of cells to obtain the energy necessary to maintain their metabolic functions and cell growth, therefore the metabolically active (live) cells reduce tetrazolium salt to formazan by means of the succinate-tetrazolium reductase system (of the mitochondrial respiratory chain). The formazan which is formed can be detected colorimetrically since it has an absorbance of 440 nm. The reading was taken in a plate reader at 440 nm 2 hours after adding the reagent.
The assay was performed on human neuroblastoma SK-N-MC cells in culture from the American Type Culture Collection (ATCC), in all cases strict rules of sterility were followed and the manipulation was performed in class II biological safety cabinets following European standard EN 12469. […]
The effect of mevalonate on the protection caused by compound NST0037 against cell death caused by the treatment with xanthine/xanthine oxidase generating oxidative damage and cell death was analyzed. […]

[2] = system: human neuroblastoma SK-N-MC cells; assay: Inhibition of camptothecin-induced apoptosis by flow cytometry (sub-G1); assay type: cell-based; conditions: pretreatment 40 μM NST0037 with 100 μM mevalonate
Protocol: as §1
The inhibition caused by compound NST0037 against apoptosis (programmed cell death) caused by treatment with camptothecin which inhibits the enzyme Topoisomerase I, which prevents DNA duplication and triggers apoptotic cell death, was analyzed. These cells, not exceeding 15 passages, were seeded on 6-well plates treated for adherent cells with a cell concentration of 8×10^5 cells/well and 7×10^5 cells/well for the assay with pretreatment; 2 wells of the plate were seeded for each condition of the assay.
After 24 hours of cell incubation at 37° C. and 5% CO2, the cell treatments were performed with 2 ml of total volume for the following conditions: • Control: culture medium (medium) • Camptothecin: medium plus camptothecin 50 μM. • Camptothecin plus Z-VAD-fmk: medium plus 50 μM camptothecin plus 50 μM Z-VAD-fmk, as positive inhibition control. • Camptothecin plus NST0037: medium plus 50 μM camptothecin plus NST0037 at 10, 40 or 100 μM.
In the assay with pretreatment, the cells were previously treated with 40 μM of NST0037, 100 μM of mevalonate or both together for 24 hours and then they were treated with 50 μM camptothecin, the rest of the procedure was similar to the assay without pretreatment.
The cells were incubated (at 37° C. and 5% CO2) with these treatments for 6 hours, after which time they were collected along with their culture medium and centrifuged at 300×g for 5 minutes. The medium was removed, a washing was performed with PBS and the cells were fixed for 2 minutes with 500 μl of 70% ethanol at −20° C. Once fixed, they were centrifuged at 400×g for 5 minutes, washed with PBS and 0.05 mg/ml propidium iodide, diluted in cycling buffer (0.1% sodium citrate, 0.3% Nonidet P-40 and 0.02 mg/ml RNase) were added and they were incubated for 1 hour at 37° C. After this time they were analyzed by flow cytometry, comparing the fluorescence of propidium iodide against the amount of DNA. The percentage of apoptosis was measured on the sub-G1 region of each of the conditions.

caspase 3/7 = assay: Inhibition of camptothecin-induced activation of caspase 3/7 in SK-N-MC cells; assay type: cell-based, human; conditions: 100 μM mevalonate with NST0037 pretreatment
Protocol: The assay was performed on human neuroblastoma SK-N-MC cells in culture from the American Type Culture Collection (ATCC), in all cases strict rules of sterility were followed and the manipulation was performed in class II biological safety cabinets following European standard EN 12469. The cells were maintained in the following culture medium: Minimum Essential Medium Eagle (MEM) supplemented with 1 mM sodium pyruvate, 2 mM L-glutamine, 0.1 mM non-essential amino acids, 0.05 mg/ml gentamicin and 10% fetal bovine serum. The induction of apoptosis on the cells in culture was performed by means of incubation with camptothecin (CPT), which triggers cell apoptosis activation. The apoptosis was determined by means of the measurement of the activation of effector caspases, caspase 3 or caspase 7, for which a kit for the fluorometric detection of active caspase 3/7 (Apo-ONE® Homogeneous Caspase-3/7, Promega) was used. The active caspase 3 or 7 of the cells cause the rupture of a substrate, which leads to fluorescence emission, which is read by means of a fluorometer. The effect of the pretreatment of compound NST0037 at 10 and 40 μM on the activation of caspase 3/7 caused by 50 μM of camptothecin (CPT) in the SK-N-MC cells was thus analyzed. These cells, not exceeding 15 passages, were seeded on 96-well plates treated for adherent cells with a cell concentration of 5×10^4 cells/well, 3 wells of the plate were seeded for each condition of the assay. After 24 hours of cell incubation at 37° C. and 5% CO2, the pretreatment with NST0037 at 10 and 40 μM was performed. […] On the following day, fluorescence was measured (499/521 nm, […]).

CC(O)(CCO)CC(=O)O (stereo not shown) [mevalonate, reference compound]
effect of mevalonate on protection by NST0037 against death by XXO ([1]; 40 μM NST0037 plus mevalonate at 10, 40 and 100 μM): inhibited
protection by mevalonate alone against death by XXO ([1]; mevalonate at 10, 40 or 100 μM): does not protect against death by XXO
effect of mevalonate on the protection exerted by NST0037 against apoptosis [2]: partially inhibited
effect of mevalonate on inhibition of caspase 3/7 by NST0037 (caspase 3/7): reverted this inhibition
